{"source": "patent US20250122218A1", "about": "“MODULATORS OF CYSTIC FIBROSIS TRANSMEMBRANE CONDUCTANCE REGULATOR” (Vertex Pharmaceuticals Incorporated, priority 2022, published 2025)", "target": "T1, CFTR in F508del/MF-HBE cells (Homo sapiens, UniProt P13569, DEL508-508)", "T1 construct": "human bronchial epithelial (HBE) cells derived from CF subjects heterozygous for F508del and a minimal function CFTR mutation; endogenous in cells; host or cells: primary human bronchial epithelial cells from CF subjects (F508del/MF-HBE)", "T1 sequence (P13569 with tags, fused parts or gaps DEL508-508)": "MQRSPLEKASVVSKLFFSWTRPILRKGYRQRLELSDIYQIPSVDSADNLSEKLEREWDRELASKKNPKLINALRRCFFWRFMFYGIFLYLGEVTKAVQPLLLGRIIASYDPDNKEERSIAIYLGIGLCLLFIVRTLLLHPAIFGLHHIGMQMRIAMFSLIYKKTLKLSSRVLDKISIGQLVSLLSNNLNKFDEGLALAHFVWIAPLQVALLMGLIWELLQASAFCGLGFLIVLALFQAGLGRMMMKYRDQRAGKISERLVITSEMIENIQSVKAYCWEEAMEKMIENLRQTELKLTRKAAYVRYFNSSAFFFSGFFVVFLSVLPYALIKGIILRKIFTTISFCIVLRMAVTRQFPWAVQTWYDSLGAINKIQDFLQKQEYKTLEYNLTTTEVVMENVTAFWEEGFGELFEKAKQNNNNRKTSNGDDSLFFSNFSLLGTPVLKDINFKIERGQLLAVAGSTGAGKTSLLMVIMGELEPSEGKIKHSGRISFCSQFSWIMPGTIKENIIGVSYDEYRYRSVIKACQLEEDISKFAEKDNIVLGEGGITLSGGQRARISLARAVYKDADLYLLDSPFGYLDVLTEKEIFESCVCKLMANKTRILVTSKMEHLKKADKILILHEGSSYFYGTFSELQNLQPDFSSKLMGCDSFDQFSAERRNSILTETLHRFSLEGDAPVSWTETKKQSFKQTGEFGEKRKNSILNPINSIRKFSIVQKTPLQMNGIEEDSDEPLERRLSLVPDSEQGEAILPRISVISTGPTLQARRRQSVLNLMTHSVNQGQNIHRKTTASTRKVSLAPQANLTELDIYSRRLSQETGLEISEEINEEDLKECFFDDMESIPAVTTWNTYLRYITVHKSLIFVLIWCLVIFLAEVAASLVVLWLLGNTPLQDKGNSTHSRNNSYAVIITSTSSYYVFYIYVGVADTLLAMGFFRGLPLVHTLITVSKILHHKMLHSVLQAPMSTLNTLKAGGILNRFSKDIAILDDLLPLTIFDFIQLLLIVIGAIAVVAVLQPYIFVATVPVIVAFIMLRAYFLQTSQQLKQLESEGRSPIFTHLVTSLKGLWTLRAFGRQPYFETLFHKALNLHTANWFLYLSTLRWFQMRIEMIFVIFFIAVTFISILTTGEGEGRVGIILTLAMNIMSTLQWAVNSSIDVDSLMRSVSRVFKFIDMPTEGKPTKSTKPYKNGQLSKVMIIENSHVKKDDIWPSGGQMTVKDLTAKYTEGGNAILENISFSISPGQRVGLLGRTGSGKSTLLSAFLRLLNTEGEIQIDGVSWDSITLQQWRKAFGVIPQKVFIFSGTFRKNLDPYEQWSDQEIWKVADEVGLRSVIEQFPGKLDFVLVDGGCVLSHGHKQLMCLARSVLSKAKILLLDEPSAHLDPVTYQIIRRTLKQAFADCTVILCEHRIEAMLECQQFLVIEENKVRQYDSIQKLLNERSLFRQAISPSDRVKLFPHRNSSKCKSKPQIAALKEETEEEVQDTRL", "test": "Ussing chamber assay of CFTR-mediated short-circuit currents (identification of potentiator compounds)", "assay_type": "cell-based", "conditions": "potentiator incubated 18-24 hours at 37° C. in combination with 10 μM corrector, in the presence of 20% human serum, CFTR-mediated ISC", "summary_of_the_method": "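Short-circuit current was measured in Ussing chambers at 37° C, Vhold 0 mV, 30 μM apical amiloride. CFTR current was defined as the forskolin (20 μM) response relative to the current remaining after BPO/GlyH-101/inhibitor 172 (20 μM each). Before recording, cells had 18-24 h exposure to test potentiators with 10 μM corrector compound in 20% human serum.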"}
{"smiles": "C[C@@H](c1ccc(OC(F)(F)F)cc1)N1CCCCC[C@](O)(C(F)(F)F)C2=NN=C(O2)c2nc(c(C(F)(F)F)cc2N)C1=O", "note": "[Compound 154, (6R)-17-amino-6-hydroxy-12-[(1S)-1-[4-(trifluoromethoxy)phenyl]ethyl]-6,15-bis (trifluoromethyl)-19-oxa-3,4,12,18-tetrazatricyclo [12.3.1.12,5] nonadeca-1(18),2,4,14,1 6-pentaen-13-one]", "values": [{"measurement": "EC50", "result": "< 500", "unit": "nM"}]}
{"smiles": "COc1ccccc1CN1CCCCC[C@](O)(C(F)(F)F)C2=NN=C(O2)c2nc(c(C(F)(F)F)cc2N)C1=O", "note": "[Compound 155, (6R)-17-amino-6-hydroxy-12-[(2-methoxyphenyl)methyl]-6,15-bis (trifluoromethyl)-19-oxa-3,4,12,18-tetrazatricyclo [12.3.1.12,5] nonadeca-1(18),2,4,14,1 6-pentaen-13-one]", "values": [{"measurement": "EC50", "result": "< 500", "unit": "nM"}]}
{"smiles": "Nc1cc(C(F)(F)F)c2nc1-c1nnc(o1)[C@@](O)(C(F)(F)F)CCCCCN(Cc1ccccc1C(F)(F)F)C2=O", "note": "[Compound 156, (6R)-17-amino-6-hydroxy-6,15-bis (trifluoromethyl)-12-[[2-(trifluoromethyl)phenyl]methyl]-19-oxa-3,4,12,18-tetrazatricyclo [12.3.1.12,5] nonadeca-1(18),2,4,14,1 6-pentaen-13-one]", "values": [{"measurement": "EC50", "result": "< 500", "unit": "nM"}]}
{"smiles": "Cc1cc(OC(F)(F)F)ccc1CN1CCCCC[C@](O)(C(F)(F)F)C2=NN=C(O2)c2nc(c(C(F)(F)F)cc2N)C1=O", "note": "[Compound 157, (6R)-17-amino-6-hydroxy-12-[[2-methyl-4-(trifluoromethoxy)phenyl]methyl]-6,15-bis (trifluoromethyl)-19-oxa-3,4,12,18-tetrazatricyclo [12.3.1.12,5] nonadeca-1(18),2,4,14,1 6-pentaen-13-one]", "values": [{"measurement": "EC50", "result": "< 500", "unit": "nM"}]}
{"smiles": "COc1cc(OC(F)(F)F)ccc1CN1CCCCC[C@](O)(C(F)(F)F)C2=NN=C(O2)c2nc(c(C(F)(F)F)cc2N)C1=O", "note": "[Compound 158, (6R)-17-amino-6-hydroxy-12-[[2-methoxy-4-(trifluoromethoxy)phenyl]methyl]-6,15-bis(trifluoromethyl)-19-oxa-3,4,12,18-tetrazatricyclo [12.3.1.12,5] nonadeca-1(18),2,4,14,1 6-pentaen-13-one]", "values": [{"measurement": "EC50", "result": "< 500", "unit": "nM"}]}
{"smiles": "Nc1cc(C(F)(F)F)c2nc1-c1nnc(o1)[C@@](O)(C(F)(F)F)CCCCCN(Cc1ccc(OC(F)(F)F)cc1F)C2=O", "note": "[Compound 159, (6R)-17-amino-12-[[2-fluoro-4-(trifluoromethoxy)phenyl]methyl]-6-hydroxy-6,15-bis (trifluoromethyl)-19-oxa-3,4,12,18-tetrazatricyclo [12.3.1.12,5] nonadeca-1(18),2,4,14,1 6-pentaen-13-one]", "values": [{"measurement": "EC50", "result": "< 500", "unit": "nM"}]}
{"smiles": "COc1ccc(CN2CCCCC[C@](O)(C(F)(F)F)C3=NN=C(O3)c3nc(c(C(F)(F)F)cc3N)C2=O)cc1F", "note": "[Compound 160, (6R)-17-amino-12-[(3-fluoro-4-methoxy-phenyl)methyl]-6-hydroxy-6,15-bis (trifluoromethyl)-19-oxa-3,4,12,18-tetrazatricyclo [12.3.1.12,5] nonadeca-1(18),2,4,14,1 6-pentaen-13-one]", "values": [{"measurement": "EC50", "result": "< 500", "unit": "nM"}]}
{"smiles": "Nc1cc(C(F)(F)F)c2nc1-c1nnc(o1)[C@@](O)(C(F)(F)F)CCCCCN(Cc1ccc(OC(F)(F)C(F)F)cc1)C2=O", "note": "[Compound 161, (6R)-17-amino-6-hydroxy-12-[[4-(1,1,2,2-tetrafluoroethoxy)phenyl]methyl]-6,15-bis (trifluoromethyl)-19-oxa-3,4,12,18-tetrazatricyclo [12.3.1.12,5] nonadeca-1(18),2,4,14,1 6-pentaen-13-one]", "values": [{"measurement": "EC50", "result": "< 500", "unit": "nM"}]}
{"smiles": "CCCc1ccc(CN2CCCCC[C@](O)(C(F)(F)F)C3=NN=C(O3)c3nc(c(C(F)(F)F)cc3N)C2=O)cc1", "note": "[Compound 162, (6R)-17-amino-6-hydroxy-12-[(4-propylphenyl)methyl]-6,15-bis (trifluoromethyl)-19-oxa-3,4,12,18-tetrazatricyclo [12.3.1.12,5] nonadeca-1(18),2,4,14,1 6-pentaen-13-one]", "values": [{"measurement": "EC50", "result": "< 500", "unit": "nM"}]}
{"smiles": "COc1cc(CN2CCCCC[C@](O)(C(F)(F)F)C3=NN=C(O3)c3nc(c(C(F)(F)F)cc3N)C2=O)ccc1F", "note": "[Compound 163, (6R)-17-amino-12-[(4-fluoro-3-methoxy-phenyl)methyl]-6-hydroxy-6,15-bis (trifluoromethyl)-19-oxa-3,4,12,18-tetrazatricyclo [12.3.1.12,5] nonadeca-1(18),2,4,14,1 6-pentaen-13-one]", "values": [{"measurement": "EC50", "result": "< 500", "unit": "nM"}]}
{"smiles": "COc1cc(F)ccc1CN1CCCCC[C@](O)(C(F)(F)F)C2=NN=C(O2)c2nc(c(C(F)(F)F)cc2N)C1=O", "note": "[Compound 164, (6R)-17-amino-12-[(4-fluoro-2-methoxy-phenyl)methyl]-6-hydroxy-6,15-bis (trifluoromethyl)-19-oxa-3,4,12,18-tetrazatricyclo [12.3.1.12,5] nonadeca-1(18),2,4,14,1 6-pentaen-13-one]", "values": [{"measurement": "EC50", "result": "< 500", "unit": "nM"}]}
{"smiles": "Cc1cc(CN2CCCCC[C@](O)(C(F)(F)F)C3=NN=C(O3)c3nc(c(C(F)(F)F)cc3N)C2=O)ccc1OC(F)(F)F", "note": "[Compound 165]", "values": [{"measurement": "EC50", "result": "< 500", "unit": "nM"}]}
{"smiles": "Nc1cc(C(F)(F)F)c2nc1-c1nnc(o1)[C@@](O)(C(F)(F)F)CCCCCN(Cc1cccc(-c3ccccc3)c1)C2=O", "note": "[Compound 166, (6R)-17-amino-6-hydroxy-12-[(3-phenylphenyl)methyl]-6,15-bis (trifluoromethyl)-19-oxa-3,4,12,18-tetrazatricyclo [12.3.1.12,5] nonadeca-1(18),2,4,14,1 6-pentaen-13-one]", "values": [{"measurement": "EC50", "result": "< 500", "unit": "nM"}]}
{"smiles": "Cc1cnc(CN2CCCCC[C@](O)(C(F)(F)F)C3=NN=C(O3)c3nc(c(C(F)(F)F)cc3N)C2=O)cn1", "note": "[Compound 167, (6R)-- 17-amino-6-hydroxy-12-[(5-methylpyrazin-2-yl)methyl]-6,15-bis (trifluoromethyl)-19-oxa-3,4,12,18-tetrazatricyclo [12.3.1.12,5] nonadeca-1(18),2,4,14,1 6-pentaen-13-one]", "values": [{"measurement": "EC50", "result": "> 1000", "unit": "nM"}]}
{"smiles": "CCCc1ccccc1CN1CCCCC[C@](O)(C(F)(F)F)C2=NN=C(O2)c2nc(c(C(F)(F)F)cc2N)C1=O", "note": "[Compound 168, (6R)-17-amino-6-hydroxy-12-[(2-propylphenyl)methyl]-6,15-bis (trifluoromethyl)-19-oxa-3,4,12,18-tetrazatricyclo [12.3.1.12,5] nonadeca-1(18),2,4,14,1 6-pentaen-13-one]", "values": [{"measurement": "EC50", "result": "< 500", "unit": "nM"}]}
{"smiles": "Cc1cnc(CN2CCCCC[C@](O)(C(F)(F)F)C3=NN=C(O3)c3nc(c(C(F)(F)F)cc3N)C2=O)nc1", "note": "[Compound 169, (6R)-17-amino-6-hydroxy-12-[(5-methylpyrimidin-2-yl)methyl]-6,15-bis (trifluoromethyl)-19-oxa-3,4,12,18-tetrazatricyclo [12.3.1.12,5] nonadeca-1(18),2,4,14,1 6-pentaen-13-one]", "values": [{"measurement": "EC50", "result": "> 1000", "unit": "nM"}]}
{"smiles": "CC(C)(C)Cc1ccc(CN2CCCCC[C@](O)(C(F)(F)F)C3=NN=C(O3)c3nc(c(C(F)(F)F)cc3N)C2=O)cc1", "note": "[Compound 170, (6R)-17-amino-12-[[4-(2,2-dimethylpropyl)phenyl]methyl]-6-hydroxy-6,15-bis (trifluoromethyl)-19-oxa-3,4,12,18-tetrazatricyclo [12.3.1.12,5] nonadeca-1(18),2,4,14,1 6-pentaen-13-one]", "values": [{"measurement": "EC50", "result": "< 500", "unit": "nM"}]}
